Reference: patent US10166302B2, “Labeling composition for cancer lesion” (NATIONAL CANCER CENTER, priority 2012, dated 2019)

Legend:
[1] = Signal intensity of near-infrared fluorescence of ICG-MAA complexes at various ICG and MAA mixing ratios; format: physicochemical; settings: for Signal intensity of near-infrared fluorescence: MAA 0 mg/ml
[2] = 18 breast cancer patients (T. Kitai, et al., Breast Cancer, 12:211-215, 2005); cited from earlier work

For `CC1(C)C(/C=C/C=C/C=C/C=C2\N(CCCCS(=O)(=O)O)c3ccc4ccccc4c3C2(C)C)=[N+](CCCCS(=O)(=O)[O-])c2ccc3ccccc3c21` [ICG, indocyanine green], the “Signal intensity of near-infrared fluorescence” value ([1]; ICG 9.0 μM) was 289, the “Signal intensity of near-infrared fluorescence” value ([1]; ICG 12.9 μM) was 363 and the “Signal intensity of near-infrared fluorescence” value ([1]; ICG 25.8 μM) was 466. The “Signal intensity of near-infrared fluorescence” value ([1]; ICG 38.7 μM) was 425, the “Signal intensity of near-infrared fluorescence” value ([1]; ICG 51.6 μM) was 399 and the “Signal intensity of near-infrared fluorescence” value ([1]; ICG 64.5 μM) was 374. For the same compound, the “Signal intensity of near-infrared fluorescence” value ([1]; ICG 77.4 μM) was 332, the “Signal intensity of near-infrared fluorescence” value ([1]; ICG 103 μM) was 289 and the “Signal intensity of near-infrared fluorescence” value ([1]; ICG 258 μM) was 139. The “Signal intensity of near-infrared fluorescence” value ([1]; ICG 516 μM) was 71, the “Signal intensity of near-infrared fluorescence” value ([1]; ICG 774 μM) was 39 and the “Signal intensity of near-infrared fluorescence” value ([1]; ICG 1032 μM) was 30. The “ICG concentration showing the highest value of signal intensity of near-infrared fluorescence” value ([1]; MAA was not treated) was 25.8 µM and the Clinical safety [2] was “safely used”.
